Test system: caecal microbiota cultures
Assay: 16S sequencing of total (DNA) and active (cDNA) community in caecal microbiota cultures, BBR vs Control
Format: cell-based, broiler chicken
Conditions: 48 h; for L2FC BBRRNA vs ControlRNA: active (cDNA) community; for L2FC BBRRNA vs BBRDNA: active vs total community in BBR group; for L2FC BBRDNA vs ControlDNA: total (DNA) community
[1] = OTU 563086 ([Ruminococcus] torques group)
[2] = OTU 574038 (uncultured Lachnospiraceae)
[3] = OTU 579244 (Ruminiclostridium 9)
[4] = OTU 592616 (Erysipelatoclostridium)
[5] = OTU 647215 (uncultured Ruminococcaceae)
[6] = OTU 843454 (Family_Lachnospiraceae)
[7] = OTU 1094991 (Ruminococcaceae UCG-005)
[8] = OTU 2265722 (uncultured Lachnospiraceae)
[9] = OTU 4404181 (uncultured Ruminococcaceae)
[10] = OTU New.CleanUp.ReferenceOTU4902 (Erysipelatoclostridium)
[11] = OTU New.ReferenceOTU85 (Anaerofilum)
[12] = OTU New.ReferenceOTU111 (Lachnospiraceae UCG-010)
[13] = OTU New.ReferenceOTU118 (Erysipelatoclostridium)
[14] = OTU New.ReferenceOTU144 (Erysipelatoclostridium)
[15] = OTU New.ReferenceOTU364 (Streptococcus)
[16] = OTU New.ReferenceOTU377 (uncultured Ruminococcaceae)
[17] = OTU New.ReferenceOTU392 (Intestinimonas)
[18] = OTU New.ReferenceOTU395 (Ruminiclostridium 9)
[19] = OTU New.ReferenceOTU429 (Erysipelatoclostridium)
[20] = OTU New.ReferenceOTU462 (Erysipelatoclostridium)
[21] = OTU New.ReferenceOTU476 (Escherichia-Shigella)
[22] = OTU New.ReferenceOTU486 (Streptococcus)
[23] = OTU New.ReferenceOTU551 (uncultured Ruminococcaceae)

COc1ccc2cc3[n+](cc2c1OC)CCc1cc2c(cc1-3)OCO2 [Berberine, Berberine chloride]
L2FC BBRRNA vs ControlRNA [1]: -0.24 | L2FC BBRRNA vs BBRDNA [1]: -1.93 | L2FC BBRDNA vs ControlDNA [1]: -0.39 | L2FC BBRRNA vs ControlRNA (OTU 564334 (Oscillibacter)): -0.38 | L2FC BBRRNA vs BBRDNA (OTU 564334 (Oscillibacter)): 2.35 | L2FC BBRDNA vs ControlDNA (OTU 564334 (Oscillibacter)): -0.21 | L2FC BBRRNA vs ControlRNA [2]: -1.65 | L2FC BBRRNA vs BBRDNA [2]: -0.24 | L2FC BBRDNA vs ControlDNA [2]: -2.16 | L2FC BBRRNA vs ControlRNA [3]: -1.11 | L2FC BBRRNA vs BBRDNA [3]: 2.49 | L2FC BBRDNA vs ControlDNA [3]: -1.32 | L2FC BBRRNA vs ControlRNA (OTU 585227 (Oscillibacter)): 0.12 | L2FC BBRRNA vs BBRDNA (OTU 585227 (Oscillibacter)): 2.44 | L2FC BBRDNA vs ControlDNA (OTU 585227 (Oscillibacter)): 0.21 | L2FC BBRRNA vs ControlRNA [4]: 0.37 | L2FC BBRRNA vs BBRDNA [4]: 1.49 | L2FC BBRDNA vs ControlDNA [4]: 0.67 | L2FC BBRRNA vs ControlRNA [5]: 0.58 | L2FC BBRRNA vs BBRDNA [5]: 2.24 | L2FC BBRDNA vs ControlDNA [5]: 0.49 | L2FC BBRRNA vs ControlRNA (OTU 813944 (Lactobacillus)): 1.85 | L2FC BBRRNA vs BBRDNA (OTU 813944 (Lactobacillus)): 1.33 | L2FC BBRDNA vs ControlDNA (OTU 813944 (Lactobacillus)): 1.53 | L2FC BBRRNA vs ControlRNA (OTU 842786 (Intestinimonas)): -0.59 | L2FC BBRRNA vs BBRDNA (OTU 842786 (Intestinimonas)): 2.24 | L2FC BBRDNA vs ControlDNA (OTU 842786 (Intestinimonas)): -0.09 | L2FC BBRRNA vs ControlRNA [6]: 0.55 | L2FC BBRRNA vs BBRDNA [6]: -1.17 | L2FC BBRDNA vs ControlDNA [6]: -0.19 | L2FC BBRRNA vs ControlRNA (OTU 847728 (Ruminococcus 2)): -0.72 | L2FC BBRRNA vs BBRDNA (OTU 847728 (Ruminococcus 2)): 1.54 | L2FC BBRDNA vs ControlDNA (OTU 847728 (Ruminococcus 2)): -0.88 | L2FC BBRRNA vs ControlRNA [7]: -1.26 | L2FC BBRRNA vs BBRDNA [7]: 1.01 | L2FC BBRDNA vs ControlDNA [7]: -1.67 | L2FC BBRRNA vs ControlRNA (OTU 1107057 (Anaerostipes)): -0.90 | L2FC BBRRNA vs BBRDNA (OTU 1107057 (Anaerostipes)): -2.55 | L2FC BBRDNA vs ControlDNA (OTU 1107057 (Anaerostipes)): -1.14 | L2FC BBRRNA vs ControlRNA (OTU 1132942 (Butyricicoccus)): 0.64 | L2FC BBRRNA vs BBRDNA (OTU 1132942 (Butyricicoccus)): -3.15 | L2FC BBRDNA vs ControlDNA (OTU 1132942 (Butyricicoccus)): 0.37 | L2FC BBRRNA vs ControlRNA [8]: 2.76 | L2FC BBRRNA vs BBRDNA [8]: -0.46 | L2FC BBRDNA vs ControlDNA [8]: 1.22 | L2FC BBRRNA vs ControlRNA [9]: 0.08 | L2FC BBRRNA vs BBRDNA [9]: -1.72 | L2FC BBRDNA vs ControlDNA [9]: 0.40 | L2FC BBRRNA vs ControlRNA [10]: -2.19 | L2FC BBRRNA vs BBRDNA [10]: -0.05 | L2FC BBRDNA vs ControlDNA [10]: -1.03 | L2FC BBRRNA vs ControlRNA [11]: -1.45 | L2FC BBRRNA vs BBRDNA [11]: -0.84 | L2FC BBRDNA vs ControlDNA [11]: -1.62 | L2FC BBRRNA vs ControlRNA [12]: -1.27 | L2FC BBRRNA vs BBRDNA [12]: -1.92 | L2FC BBRDNA vs ControlDNA [12]: -0.42 | L2FC BBRRNA vs ControlRNA [13]: -1.90 | L2FC BBRRNA vs BBRDNA [13]: -0.75 | L2FC BBRDNA vs ControlDNA [13]: -0.82 | L2FC BBRRNA vs ControlRNA [14]: 0.42 | L2FC BBRRNA vs BBRDNA [14]: 1.64 | L2FC BBRDNA vs ControlDNA [14]: 0.55 | L2FC BBRRNA vs ControlRNA [15]: -0.92 | L2FC BBRRNA vs BBRDNA [15]: -0.91 | L2FC BBRDNA vs ControlDNA [15]: -1.70 | L2FC BBRRNA vs ControlRNA [16]: -0.22 | L2FC BBRRNA vs BBRDNA [16]: 1.91 | L2FC BBRDNA vs ControlDNA [16]: -0.81 | L2FC BBRRNA vs ControlRNA [17]: -0.28 | L2FC BBRRNA vs BBRDNA [17]: 1.69 | L2FC BBRDNA vs ControlDNA [17]: -0.31 | L2FC BBRRNA vs ControlRNA [18]: -1.01 | L2FC BBRRNA vs BBRDNA [18]: 2.37 | L2FC BBRDNA vs ControlDNA [18]: -1.00 | L2FC BBRRNA vs ControlRNA [19]: 0.23 | L2FC BBRRNA vs BBRDNA [19]: 1.73 | L2FC BBRDNA vs ControlDNA [19]: 0.65 | L2FC BBRRNA vs ControlRNA [20]: -0.55 | L2FC BBRRNA vs BBRDNA [20]: 1.51 | L2FC BBRDNA vs ControlDNA [20]: -0.78 | L2FC BBRRNA vs ControlRNA [21]: -0.42 | L2FC BBRRNA vs BBRDNA [21]: 1.67 | L2FC BBRDNA vs ControlDNA [21]: -0.75 | L2FC BBRRNA vs ControlRNA [22]: -0.10 | L2FC BBRRNA vs BBRDNA [22]: -0.33 | L2FC BBRDNA vs ControlDNA [22]: -2.01 | L2FC BBRRNA vs ControlRNA [23]: 0.00 | L2FC BBRRNA vs BBRDNA [23]: 2.70 | L2FC BBRDNA vs ControlDNA [23]: 0.58
